The text below walks through data of ChEMBL document CHEMBL3526078, “Pharmacokinetics and hepatic uptake of eltrombopag, a novel platelet-increasing agent” (Drug Metab Dispos, 2011).

Series [1] has as its system Hepatocyte. Nature of the series: Drug uptake in mouse hepatocytes in absence of Na+. It counts as ADME, cell-based.
Series [2] deals with Hepatocyte. As to the kind of experiment: Drug uptake in mouse hepatocytes in presence of taurocholate OATP inhibitor. It counts as ADME, cell-based.
Series [3] concerns Hepatocyte. As to the kind of experiment: Drug uptake in mouse hepatocytes in presence of quinidine. Type of series: ADME, cell-based.
The nature of series [4]: Distribution volume to the central compartment in Sprague-Dawley rat urine at 1 mg/kg, iv. Type of series: ADME, organism-based. Set-up: dose 1 mg/kg, route intravenous. Conditions: read-out: Vc; call rule not given here.
Series [5] deals with Hepatocyte. As to the kind of experiment: Drug uptake in mouse hepatocytes in presence of carbonyl cyanide-para-trifluoromethoxyphenylhydrazone ATP depletor. Type of series: ADME, cell-based.
In series [6] the test system is Hepatocyte. Nature of the series: Drug uptake in mouse hepatocytes in presence of phenylalanine. It counts as ADME, cell-based.
Series [7] is described as follows: Maximum plasma concentration in mouse at 1 mg/kg, iv. It counts as ADME, organism-based. Also on record: dose 1 mg/kg, route intravenous.
The target in series [8] is T1, Solute carrier organic anion transporter family member 1B3 (Homo sapiens, UniProt Q9NPD5).
T1 sequence (Q9NPD5 whole entry): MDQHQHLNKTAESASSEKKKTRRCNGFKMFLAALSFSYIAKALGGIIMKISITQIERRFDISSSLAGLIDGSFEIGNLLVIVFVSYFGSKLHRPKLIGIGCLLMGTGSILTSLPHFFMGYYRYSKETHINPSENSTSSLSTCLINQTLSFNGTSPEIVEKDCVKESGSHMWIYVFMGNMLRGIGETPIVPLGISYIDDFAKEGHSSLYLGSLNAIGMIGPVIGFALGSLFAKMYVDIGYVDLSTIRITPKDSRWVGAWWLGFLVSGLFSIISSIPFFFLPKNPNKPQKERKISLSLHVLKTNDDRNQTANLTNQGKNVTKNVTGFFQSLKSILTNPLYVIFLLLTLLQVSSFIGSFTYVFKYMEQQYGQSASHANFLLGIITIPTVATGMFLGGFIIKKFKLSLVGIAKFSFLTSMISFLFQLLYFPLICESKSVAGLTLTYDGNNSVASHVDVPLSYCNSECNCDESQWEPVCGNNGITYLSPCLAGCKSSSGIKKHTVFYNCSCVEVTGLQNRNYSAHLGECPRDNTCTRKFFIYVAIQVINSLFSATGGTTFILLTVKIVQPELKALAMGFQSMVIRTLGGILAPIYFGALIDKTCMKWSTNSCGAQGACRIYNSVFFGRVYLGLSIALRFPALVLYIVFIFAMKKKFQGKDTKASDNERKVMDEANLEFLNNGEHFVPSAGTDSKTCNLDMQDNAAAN
As to the kind of experiment: Inhibition of OATP1B3-mediated [3H]estradiol 17beta-glucuronide uptake in human OATP1B3 expressing HEK293/PDZK1 cells by scintillation counting. It counts as ADME, cell-based.

Series [9] concerns Hepatocyte. As to the kind of experiment: Drug uptake in mouse hepatocytes in presence of verapamil. It counts as ADME, cell-based.
In series [10] the test system is Kidney. Nature of the series: Drug uptake in mouse kidney at 1 mg/kg, iv in presence of 20 mg/kg OATP inhibitor rifampicin. Type of series: ADME, organism-based. Conditions: in vivo.
Series [11] concerns Hepatocyte. As to the kind of experiment: Drug uptake in mouse hepatocytes in presence of rotenone ATP depletor. Type of series: ADME, cell-based.
Series [12] relates to Liver. Particulars: rat, in vivo, iv, 1 mg/kg.
Series [13] deals with Hepatocyte. Nature of the series: Drug uptake in mouse hepatocytes at pH 7.4. It counts as ADME, cell-based.
Series [14] concerns Hepatocyte. As to the kind of experiment: Drug uptake in mouse hepatocytes in presence of tetraethylammonium. It counts as ADME, cell-based.
The subject of series [15] is Hepatocyte. Nature of the series: Drug uptake in mouse hepatocytes in presence of GABA. It counts as ADME, cell-based.
The target of series [16] is T2, Solute carrier organic anion transporter family member 1B1 (Homo sapiens, UniProt Q9Y6L6).
T2 sequence (Q9Y6L6 whole entry): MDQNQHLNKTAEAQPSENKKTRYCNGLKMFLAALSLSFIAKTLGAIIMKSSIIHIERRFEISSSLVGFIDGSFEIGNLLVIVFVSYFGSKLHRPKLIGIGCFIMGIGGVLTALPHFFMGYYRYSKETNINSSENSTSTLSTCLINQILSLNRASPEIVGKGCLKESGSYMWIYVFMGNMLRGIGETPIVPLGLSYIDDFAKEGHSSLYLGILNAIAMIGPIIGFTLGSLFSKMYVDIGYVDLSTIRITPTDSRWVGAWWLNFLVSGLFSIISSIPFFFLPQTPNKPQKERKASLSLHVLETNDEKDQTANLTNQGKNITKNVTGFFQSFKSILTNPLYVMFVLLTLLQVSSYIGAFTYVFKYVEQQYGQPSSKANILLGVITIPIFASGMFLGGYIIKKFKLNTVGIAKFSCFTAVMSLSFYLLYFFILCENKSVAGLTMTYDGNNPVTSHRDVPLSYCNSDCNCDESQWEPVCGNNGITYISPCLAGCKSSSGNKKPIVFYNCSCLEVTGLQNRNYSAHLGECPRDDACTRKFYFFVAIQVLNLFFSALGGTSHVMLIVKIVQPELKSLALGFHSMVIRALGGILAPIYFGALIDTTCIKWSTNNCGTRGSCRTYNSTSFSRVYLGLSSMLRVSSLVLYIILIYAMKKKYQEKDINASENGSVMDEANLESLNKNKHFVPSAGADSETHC
Nature of the series: Inhibition of OATP1B1-mediated [3H]estrone-3-sulfate uptake in human OATP1B1 expressing HEK293/PDZK1 cells by scintillation counting. Type of series: ADME, cell-based.

Series [17] has as its system Liver. As to the kind of experiment: Tissue uptake clearance in bile duct cannulated Sprague-Dawley rat liver at 1 mg/kg, iv by integration plot analysis. Type of series: ADME, organism-based. Also on record: dose 1 mg/kg, route intravenous. Particulars: in vivo.

pKi: −log10 of the molar value.

A word on the Cmax: it is the highest concentration seen after dosing. Broadly, the pKi is −log10 of the Ki, conventionally taken in molar units. Read a low pKi as a high Ki. With `CC1=NN(c2ccc(C)c(C)c2)C(=O)/C1=N\Nc1cccc(-c2cccc(C(=O)O)c2)c1O` [ELTROMBOPAG], the Drug uptake result is “Active” in series [1]; “Not Active” in series [2]; “Not Active” in [3]; “Not Active” in [5]; “Not Active” in series [6]; “Not Active” in series [9]. Further, the Drug uptake entry was “Active” in series [10]; “Not Active” in [11]; “Active” in series [13]; “Not Active” in series [14]; “Not Active” in [15]. Besides, the Vd in series [4] is 0.0411 L/kg. In addition, the Cmax in series [7] was 40 µM. The results for the pKi in [8] and in series [16] were 4.59 and 4.83, respectively. The “inhibition (INH)” value in series [8] (human, hek293/pdzk1) is reported as “Active”; in series [16] (human, hek293/pdzk1), “Active”. Moreover, the values for the CLup in series [12] and in series [17] were 0.38 mL/min/kg and 0.747 mL/min/kg, respectively.
